The values that follow come from article PMC4519322 (PLoS Pathogens, 2015).

One may read the IC50 as the point on the concentration scale where inhibition reaches its midpoint.

Assay [1] concerns A/WSN/1933 (H1N1). It counts as cell-based, influenza A virus.
Assay [2] deals with Y289H rWSN. Format: cell-based, influenza A virus. The conditions noted are these: read-out: IC50 (μM) Y289H rWSM (H1N1).

Regarding `Cc1onc(-c2ccccc2)c1C(=O)N1CCN(c2ccc([N+](=O)[O-])cc2Cl)CC1` [Nucleozin, nucleozin, reference compound], in assay [1], the “sensitivity of RK424 3rd passage virus” value is on record as “susceptible” and the “sensitivity of nucleozin 4th passage virus” value was “exhibited resistance”. In addition, in assay [2], the IC50 is more than 100 µM.

Consider `O=C(O)c1cc(-c2ccc(-c3ccccc3)cc2)nc2ccccc12` [RK424], for which, in assay [1], the “sensitivity of RK424 3rd passage virus” value is “susceptible” and the “sensitivity of nucleozin 4th passage virus” value is recorded as “but not RK424”. For the same compound, the half-inhibitory concentration (IC50) in assay [2] was 0.3 ± 0.1 µM.
